Laboratory results as given in paper PMC3030572, “Antamanide, a Derivative of Amanita phalloides, Is a Novel Inhibitor of the Mitochondrial Permeability Transition Pore” (PLoS ONE, 2011).
“Also recorded” adds a separate entry of the source.

Experiments:
[1] = test system: membrane permeabilization by phalloidin; assay: membrane permeabilization by phalloidin; assay type: cell-based; conditions: data not shown
[2] = test system: mitochondria isolated from wild-type fibroblasts; assay: mitochondrial respiration assay, wild-type fibroblast mitochondria; assay type: biochemical, mouse; conditions: 8 µM AA; polarography, Clark electrode, 25°C; repeated at least three times
Experimental: (§1) Figure 3 Effect of AA on respiration and PTP opening in mitochondria of wild-type or CyP-D knock-out mouse fibroblasts. A, upper part: Western blot analysis assessing CyP-D expression in fibroblasts obtained from either wild-type or CyP-D knock-out mice; HKII was utilized to verify protein load; lower part: representative experiment showing oxygen consumption as assessed by polarography (see Methods) in mitochondria isolated from wild-type fibroblasts in the absence (a) or presence (b) of 8 µM AA. Experiments were started by adding 0.6 mg of mitochondria (Mito), followed by 100 µM ADP and 50 µM 2,4-dinitrophenol (DNP) (arrows). Each experiment was repeated at least three times. Oxygen consumption is reported as percentage of initial value on the y axis. B, bar graphs report the ratio between the CRC detected in the presence (CRC) and absence (CRC0) of increasing concentrations of AA, in mitochondria from either wild-type fibroblasts (left) or CyP-D knock-out fibroblasts (right). […] Results are mean±SD of at least 4 experiments.
Mitochondrial oxygen consumption was measured polarographically at 25°C with a Clark oxygen electrode (Yellow Springs Instruments, OH, USA). Mitochondria (0.6 mg per experimental point) were incubated in a solution of 130 mM KCl, 10 mM Tris-Mops, 1 mM Pi-Tris, 20 mM EGTA-Tris and 2 µM rotenone/5 mM succinate to assay basal respiration (state 4). […]

[3] = test system: mitochondrial permeability transition pore (PTP), HeLa cells; assay: CRC assay, mitochondria isolated from HeLa cells; assay type: biochemical, human; conditions: Figure 5A
Experimental: (§2) Figure 5 Effect of AA on mitochondrial potential of HeLa cells. A, bar graphs report the ratio between the CRC detected in the presence (CRC) and absence (CRC0) of increasing concentrations of AA in mitochondria from HeLa cells. […] B,C cytofluorimetric analysis of mitochondrial depolarization. HeLa cells were incubated with the TMRM probe and treated for 1 hour with the reported concentrations of either clotrimazole (CTM) or TAT-HK peptide. An unrelated TAT-linked peptide (TAT-Ctr) is used as a negative control. […] Bar graphs in B display the percentage of cells with depolarized mitochondria (mean±SD, n = 4). […] Histograms in C report a representative experiment, where cells with polarized and depolarized mitochondria are indicated in red and grey, respectively.
(§3) Mitochondria were isolated either from livers of C57BL/6 mice through sequential centrifugations, or from cells, as described. To obtain mitochondria, cells were disrupted with a glass-Teflon potter in a buffer composed by 250 mM sucrose, 10 mM Tris-HCl, 0.1 mM EGTA-Tris, pH 7.4. Nuclei and plasma membrane fractions were separated by a first mild centrifugation (700× g, 10 min), and mitochondria were then spinned down at a higher speed (7000× g, 10 min). All procedures were carried out at 0–4°C.
(§4) PTP opening was detected as a fluorescence increase.

[4] = test system: mitochondrial permeability transition pore (PTP), wild-type fibroblasts; assay: CRC assay, mitochondria isolated from wild-type mouse fibroblasts; assay type: biochemical; conditions: Figure 3B
Experimental: Figure 3 Effect of AA on respiration and PTP opening in mitochondria of wild-type or CyP-D knock-out mouse fibroblasts. A, upper part: Western blot analysis assessing CyP-D expression in fibroblasts obtained from either wild-type or CyP-D knock-out mice; HKII was utilized to verify protein load; lower part: representative experiment showing oxygen consumption as assessed by polarography (see Methods) in mitochondria isolated from wild-type fibroblasts in the absence (a) or presence (b) of 8 µM AA. Experiments were started by adding 0.6 mg of mitochondria (Mito), followed by 100 µM ADP and 50 µM 2,4-dinitrophenol (DNP) (arrows). Each experiment was repeated at least three times. Oxygen consumption is reported as percentage of initial value on the y axis. B, bar graphs report the ratio between the CRC detected in the presence (CRC) and absence (CRC0) of increasing concentrations of AA, in mitochondria from either wild-type fibroblasts (left) or CyP-D knock-out fibroblasts (right).
as §3, §4

[5] = test system: mitochondrial permeability transition pore (PTP); assay type: biochemical, mouse
Experimental: A, chemical structure of AA. B, D, Ca^2+ retention capacity (CRC) either in phosphate (Pi) buffer (B) or in arsenate (Asi) buffer (D). Calcium Green-5N fluorescence is reported as arbitrary units on the y axis.
as §3, §4

[6] = test system: mitochondrial permeability transition pore (PTP), CyP-D knock-out fibroblasts; assay: CRC assay, mitochondria isolated from CyP-D knock-out mouse fibroblasts; assay type: biochemical; conditions: 25°C, Figure 3B
Experimental: as §1
Mitochondria were isolated either from livers of C57BL/6 mice through sequential centrifugations, or from cells, as described. To obtain mitochondria, cells were disrupted with a glass-Teflon potter in a buffer composed by 250 mM sucrose, 10 mM Tris-HCl, 0.1 mM EGTA-Tris, pH 7.4. […]
as §4

HeLa cells = assay type: cell-based, human; conditions: 30 min preincubation, TMRM, n = 4
Experimental: as §2
Flow cytometry recordings were performed as described, [51], [52]. Briefly, at the end of the incubation, cells were resuspended in 135 mM NaCl, 10 mM HEPES, 5 mM CaCl2 and incubated at 37°C in either TMRM (10 nM) to detect mitochondrial depolarization (reduced TMRM staining), or in FITC-conjugated Annexin-V and propidium iodide (PI, 1 µg/ml), to detect phosphatidylserine exposure on the cell surface (increased FITC-conjugated Annexin-V staining) and loss of plasma membrane integrity (PI permeability and staining). […] Samples were analyzed on a FACSCanto II flow cytometer (Becton Dickinson, San Diego, CA, USA). Data acquisition and analysis were performed using FACSDiva software.

immunosuppressant = test system: immunosuppressant; design: method as in PMID 1494502, PMID 8441706; conditions: ref [10], [11]; cited from earlier work
Source text: Antamanide (AA) is a monocyclic, homodetic decapeptide isolated from the poisonous mushroom Amanita phalloides. […] Little is known about the biochemical mechanisms underlying these diverse bioactivities. […] The CyP chaperone activity, i.e. the isomerization to the cis form of the peptidyl bonds preceding each proline, is involved in folding and association processes required for proteins to perform thei ...

[7] = AA at various concentrations, mean±SD of at least 4 experiments, Student's t test

For Antamanide [AA], the “inhibition of membrane permeabilization by phalloidin” value [1] was “inhibits membrane permeabilization by phalloidin”, the oxygen consumption [2] was “unaffected” and the “CRC/CRC0: difference from CRC of untreated mitochondria” value (“CRC/CRC0: difference from CRC” below) [3, 7] was “significant difference (Student's t test analysis; *: p<0.01)”. The “additivity of PTP inhibition with CsA” value ([3]; combination with CsA) was “the effect of AA did not add to that of CsA; also recorded: not additive”, the “PTP inhibition (CRC)” value ([3]; mitochondria from HeLa cells) was “AA inhibited the pore also in mitochondria isolated from HeLa cells” and the “CRC/CRC0: difference from CRC” value [4, 7] was “significant difference (Student's t test analysis; *: p<0.01)”. For the same substance, the “additivity of PTP inhibition with CsA” value ([4]; combination with CsA) was “not enhanced by CsA; also recorded: not additive”, the “PTP inhibition (CRC)” value ([4]; isolated mitochondria, 25°C) was “AA inhibited the pore in mitochondria from wild-type fibroblasts” and the “CRC/CRC0: difference from CRC” value ([5]; AA at various concentrations, Figure 1C and D, mean±SD of at least 4 experiments, Student's t test) was “significant difference (Student's t test analysis; *: p<0.01)”. The “concentration at which the effect reaches a plateau (concentration-response CRC)” value ([5]; Figure 2B, mean±SD of at least 4 experiments) was “about 20 µM”, the “PTP inhibition in arsenate” value ([5]; arsenate (Asi) buffer, Figure 1B, D) was “abrogated in the presence of arsenate; also recorded: act as pore inhibitors only in Pi buffer” and the “additivity of PTP inhibition with CsA” value ([5]; combination with CsA, Figure 1C) was “not additive with that of CsA”. The “additivity of PTP inhibition with Ub0” value ([5]; combination with Ub0, Figure 1C, t test #: p<0.01) was “AA did increase inhibition by Ub0; also recorded: additive with that of Ub0”, the “PTP inhibition (CRC)” value ([5]; phosphate-containing medium, Calcium Green-5N, 25°C) was “AA inhibited pore opening, similar to the PTP inhibitors CsA or Ubiquinone 0” and the “PTP inhibition (CRC)” value [6] was “totally ineffective”. For the same substance, the “reversal of CTM-induced mitochondrial depolarization” value (HeLa cells; then CTM 1 hour) was “significantly decreased the percentage of cells with mitochondria depolarized by CTM (Student's t test analysis; *: p<0.01); also recorded: similarly reverted”, the “reversal of TAT-HK-induced mitochondrial depolarization” value (HeLa cells; then TAT-HK 1 hour) was “similarly reverted” and the immunosuppressant activity (immunosuppressant) was “acts as an immunosuppressant”.
